Experimental findings from PubChem BioAssay (NCI) are described below.

Each structure is given as a SMILES string. Values joined by “and” are separate entries in the source; they are usually repeats but may differ in a detail not shown here. Equal values may be shown once.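 Results reflect a 48-hour exposure of cells in 96-well plates to compound at five concentrations. Abbreviation: GI50, concentration required for 50% inhibition of growth. TGI denotes the concentration required for complete inhibition of growth.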

Holding throughout (test): DTP human tumour cell line panel, 48 h
The test system of assay [1] is HS 578T breast.
The subject of assay [2] is TK-10 renal.
The subject of assay [3] is SW-620 colon.
The test system of assay [4] is HCT-116 colon.
Assay [5] concerns NCI/ADR-RES ovarian.
Assay [6] deals with IGROV1 ovarian.
Assay [7] relates to RXF 393 renal.
Assay [8] deals with DU-145 prostate.
For assay [9], the system named is NCI-H522 lung.
In assay [10] the test system is MDA-N.

With `Nc1ccc(-n2c(=O)oc3ccc(Cl)cc3c2=O)c(Cl)c1`, the GI50 in assay [1] is 0.081 µM; in assay [2] it was 0.187 µM; in assay [3], 0.161 µM; in [4], 0.108 µM; in assay [5], 0.172 µM; in assay [6] it was 0.14 µM. For the same molecule, the GI50 is 0.0838 µM in assay [7], 0.202 µM in assay [8] and 0.0741 µM in assay [9]. For the same molecule, the TGI in assay [1] was 0.562 µM; in assay [2] it was 20.4 µM; in assay [3] it was 8.18 µM; in assay [4], 0.52 µM; in assay [5], 1.03 µM; in assay [6], 36.7 µM. Besides, the TGI was found to be 0.293 µM in [7], 14 µM in assay [8] and 0.588 µM in assay [9].
As for `O=C1C[C@H](c2ccccc2)C2(C(=O)c3ccccc3C2=O)[C@H](c2ccccc2)C1`, the TGI in assay [1] was greater than 100 µM; in assay [4], greater than 100 µM; in assay [5] it was greater than 100 µM; in [6] it was greater than 100 µM; in assay [10] it was greater than 100 µM; in assay [7], 50.5 µM. Besides, the TGI in assay [8] and in assay [9] was greater than 100 µM in each case.
Take `CN1CCCCC(C(O)(c2ccccc2)c2ccccc2)C1=O` (configuration not stated): the TGI in [2] was greater than 100 µM; in assay [3], 25.9 µM; in assay [4], 56.9 µM; in assay [6], greater than 100 µM; in [7] it was greater than 100 µM; in assay [9], greater than 100 µM.
In the case of `Cc1ccc2nc(Cl)c(/C=N/N3C(=O)/C(=C/c4ccc(N(C)C)cc4)N=C3c3ccccc3)cc2c1`, the TGI in assay [1], in assay [2], in [3], in assay [4], in [5] and in assay [6] was greater than 100 µM each time. The TGI was 92.6 µM in [10] and greater than 100 µM in assay [8].
Regarding `Clc1ncnc2c1ncn2CCCCCCCCCCCCn1cnc2c(Cl)ncnc21`, the TGI was determined as 54.1 µM in [2]; 60.8 µM in [3]; 24.8 µM in assay [4]; 15.7 µM in assay [6]; 32.2 µM in assay [7]; 2.87 µM in [9].
Take `COC1/C=C/C(C)C(C(C)C(OC)C(C)CCC(=O)C(C)C(C/C=C/N(C)C=O)OC)OC(=O)/C=C/C=C(\C)CC(OC)C(OC)C2=CC(=O)O[C@@H](C(C)C(OC)CC(OC)/C=C/C(C)C(O)C1)[C@H]2O` (some centres not stated): the TGI in [1] worked out at 0.16 µM; in assay [2], 0.166 µM; in [3], 0.343 µM; in [4], 0.207 µM; in assay [5], 0.766 µM; in assay [7] it was 0.263 µM. In assay [9], this molecule had a TGI of 0.286 µM.
As to `COc1ccc2c(c1)CC[C@@H]1[C@@H]2CC[C@]2(C)C(=O)/C(=C/c3cc(OC)c(OC)c(OC)c3)C[C@@H]12`, the TGI in [2] was 34.2 µM; in assay [3], greater than 100 µM; in [4], greater than 100 µM; in assay [5] it was 34.6 µM; in assay [7] it was 86.8 µM; in [8], greater than 100 µM.
On to `COc1ccc(C2=CN3CCC[C@H]3C=C2c2cc(O)c(OC)c(OC)c2)cc1OC`, for which the TGI in assay [1] was 0.036 µM; in assay [2], 0.153 µM; in [3], 0.0578 µM and 0.0206 µM; in [4] it was 0.0108 µM; in assay [6], 0.3 µM and 0.0857 µM; in assay [10] it was 0.104 µM. Also, the TGI is 0.0288 µM in assay [7], 0.254 µM in assay [8] and 0.026 µM in assay [9].
As for `Cc1cc([N+](=O)[O-])ccc1N=NC(=O)NNc1ccc([N+](=O)[O-])cc1C`, the TGI in assay [2] is 31.5 µM; in [3], 33.7 µM; in assay [4], 28.2 µM; in assay [6], 33.8 µM; in assay [10] it was 29.9 µM; in assay [8] it was 30.1 µM. The molecule also gave a TGI in assay [9] of 51.7 µM.
As to `O=C(O)/C=C/C(=O)O`, the TGI in [1], in assay [2], in [3], in assay [4], in assay [5] and in assay [6] was greater than 100 µM in each case. Further, the TGI in assay [10], in [8] and in assay [9] was greater than 100 µM throughout.
With `O=c1[nH]c2ccccc2c2oc(-c3ccccc3)nc12`, the TGI in assay [1] is 71.9 µM; in [2], greater than 100 µM; in assay [3], 58.1 µM; in assay [4], 69.3 µM; in assay [5], greater than 100 µM; in assay [6], greater than 100 µM. Further, the TGI is 46.6 µM in assay [10], 44 µM in assay [7] and greater than 100 µM in [9].
Consider `NC(=O)NCCCC(NC(=O)OCCCCCn1ccc(=O)[nH]c1=O)C(=O)O` (configuration not stated), for which the TGI in assay [1], in assay [2], in assay [3], in assay [4], in [5] and in assay [6] was greater than 100 µM in each case. Also, the TGI in assay [10], in [7] and in assay [8] was greater than 100 µM in each case.
As to `COc1ccc2c(c1)-c1oc3ccccc3c(=O)c1CO2`, the TGI was greater than 100 µM in [2]; greater than 100 µM in assay [3]; greater than 100 µM in [4]; greater than 100 µM in assay [5]; greater than 100 µM in assay [6]; 78.1 µM in assay [10]. Besides, the TGI in assay [8] and in assay [9] was greater than 100 µM in each case.
For `COC(=O)c1cccc(C(=O)OC)c1`, the TGI in [2], in [3], in assay [4], in assay [7] and in assay [9] was greater than 100 µM throughout.
Take `O=C(Nc1cccc(-n2ccc3c(NC(=O)c4ccccc4)nccc32)c1)c1cc(N2CCOCC2)cc(C(F)(F)F)c1`: the GI50 in [1] was 0.0621 µM; in [2], 0.435 µM; in assay [3], 0.0484 µM; in [4] it was 0.0347 µM; in assay [5] it was 0.09 µM; in [6] it was 0.235 µM. Also, the GI50 in assay [7] is 0.0325 µM; in assay [8] it was 0.164 µM; in assay [9], 0.0269 µM. The TGI is 32.6 µM in assay [1]; greater than 95.5 µM in [2]; greater than 100 µM in assay [3]; greater than 29.8 µM in assay [4]; greater than 100 µM in assay [5]; greater than 100 µM in assay [6]. Further, in assay [7], the TGI was determined as 0.159 µM.
With `COc1cc(C2S/C(=C/c3ccccc3)C(=O)N2c2cccc([N+](=O)[O-])c2)cc(OC)c1OC` (configuration not stated), the total growth inhibition concentration (TGI) in assay [1] is greater than 100 µM; in [2], greater than 100 µM; in [4], greater than 100 µM; in assay [5], greater than 100 µM; in assay [10], 55.7 µM; in assay [9] it was greater than 100 µM.
In the case of `COc1nc2[nH]ccc2c(=O)n1C`, the TGI in assay [2], in assay [3], in [4], in assay [6] and in [7] was greater than 100 µM each time.
For the molecule `COC(=O)c1ccccc1CC(Cc1ccccc1)C(=O)OC` (configuration not stated), the TGI in assay [1], in assay [2], in [3], in assay [4], in [5] and in assay [6] was greater than 100 µM throughout. Besides, the figures for the TGI in assay [7], in assay [8] and in [9] were 70.9 µM, greater than 100 µM and greater than 100 µM, respectively.
Regarding `CC(=O)Nc1ccc(-c2nnc(SCC(=O)Nc3ccccc3C)o2)cc1`, the TGI was greater than 100 µM in [2]; greater than 100 µM in [3]; 29.4 µM in assay [4]; greater than 100 µM in assay [6]; greater than 100 µM in assay [7]; greater than 100 µM in assay [9].
As for `COC(=O)CCN(CCC(=O)OC)C1CC1`, the TGI in [1], in assay [2], in assay [3], in [4], in [5] and in assay [6] was greater than 100 µM throughout. For the same molecule, the TGI in assay [7] and in assay [8] was greater than 100 µM in each case.
As to `O=C(NN1C(=O)C=CC1=O)c1ccccc1Nc1ccccc1C(=O)NN1C(=O)C=CC1=O`, the TGI in assay [2], in assay [3], in assay [4], in [5], in [6] and in assay [10] was greater than 100 µM throughout. The TGI in assay [7], in assay [8] and in assay [9] was greater than 100 µM in each case.
On to `O=C1/C(=C/c2ccco2)NC(=S)N1CN1CCOCC1`, for which the total growth inhibition concentration (TGI) in [1], in [2], in assay [3], in [4], in assay [5] and in assay [6] was greater than 100 µM in each case. The TGI in [10] and in assay [8] was greater than 100 µM throughout.
For the molecule `Cc1cccc2c1C/C(=C\c1cccc(C)c1C(=O)O)C2=O`, the TGI in assay [1], in [2], in assay [3], in assay [4], in assay [5] and in assay [6] was greater than 100 µM each time. The concentration for total growth inhibition (TGI) in assay [7], in assay [8] and in assay [9] was greater than 100 µM throughout.
Take `CCC(C)C1(O)OC2CC3(C)OC(=CC3=O)/C(C)=C\C3OC(=O)C1(C)C32` (configuration not stated): the TGI in assay [1] is greater than 100 µM; in assay [2] it was 54.2 µM; in [4] it was 47.2 µM; in assay [5], greater than 100 µM; in assay [6] it was 53.5 µM; in assay [10], 21 µM. For the same molecule, the TGI in assay [8] was 17 µM; in assay [9] it was 14.3 µM.
Take `Cn1ccc(C(=O)NCCCCCNC(=O)c2ccn(C)c(=O)c2O)c(O)c1=O`: the TGI in assay [1], in assay [2], in assay [3], in assay [4], in assay [5] and in [10] was greater than 100 µM in each case. Further, the TGI in assay [8] and in assay [9] was greater than 100 µM throughout.
For `O=C(O)c1ccc(Nc2nc3ccccc3nc2C(=O)O)cc1`, the TGI in assay [1], in assay [2], in [4], in assay [5], in [6] and in assay [10] was greater than 100 µM throughout. Besides, the TGI in assay [8] and in assay [9] was greater than 100 µM throughout.
Take `CN(C)CC(NC(NCS)C(=O)NCCNc1ccc(NCCNC(=O)C(NCS)NC(CN(C)C)OCCl)c2c1C(=O)c1c(O)ccc(O)c1C2=O)OCCl` (configuration not stated): the total growth inhibition concentration (TGI) is 3.05 µM in assay [1]; 2.44 µM in assay [2]; 1.25 µM in assay [3]; 1.72 µM in assay [4]; 4.99 µM and 5.04 µM in assay [5]; 2.49 µM in assay [6]. The TGI was 1.09 µM in [10]; 0.977 µM and 0.287 µM in assay [8]. Also, the results for the GI50 in assay [2], in assay [5] and in assay [8] were 0.34 µM, 0.287 µM and 0.0162 µM, respectively.
Consider `CC(C)C1=CC23CCC4C(C)(C(=O)O)CCCC4(C)C2CC1C(C(=O)O)C3C(=O)O` (configuration not stated), for which the TGI in assay [1], in assay [2], in [3], in assay [4], in [5] and in assay [6] was greater than 100 µM in each case. Besides, the TGI in assay [7], in [8] and in [9] was greater than 100 µM in each case.
Regarding `c1ccc(Nc2nnc(-c3nsc4ccccc34)o2)cc1`, the TGI in assay [2], in assay [3], in assay [4], in assay [6] and in assay [7] was greater than 100 µM in each case.
For the molecule `COc1cc(/C=C/C(=O)OC[C@H](Br)[C@H](OC(C)=O)c2ccc3c(c2)OCO3)cc(OC)c1OC`, the TGI in [2], in [3], in [4], in assay [5], in assay [6] and in [7] was greater than 100 µM each time. Moreover, the TGI in assay [8] and in assay [9] was greater than 100 µM throughout.
For `CN1CC2CC(C1)c1cccc(=O)n1C2` (configuration not stated), the TGI in [1], in assay [2], in [4], in [5], in [6] and in assay [10] was greater than 100 µM each time. Also, the TGI in assay [7], in [8] and in [9] was greater than 100 µM each time.
